SMILES strings stand for the structures. Like-named read-outs stand apart in the source and are kept apart here.

In experiment [1] the test system is mouse L1210 leukemia cells. As to the kind of experiment: In vitro cytotoxicity, 48 h growth inhibition (cell protein content). Format: cell-based. The method, then: The mouse L1210 leukemia cells (RPM1, USA) are grown in RPM1 1640 medium supplemented with 5% fetal calf serum and penicillin (1,000,000 units litre) plus streptomycin (100 mg/litre) in controlled air-5% CO2 humidified atmosphere at 37° C. L1210 mouse leukemia cells are seeded at a density of 5.10^4 cells/ml. The tested compounds after being dissolved in 50% ethanol are added, at four different concentrations, to the cell suspensions. […] 1974, 24, 1971.

The next experiment has as its system P388 lymphotic leukemia. As to the kind of experiment: In vivo antileukemic evaluation, P388 leukemia in BDF1 mice. The method, then: BDF1 mice are injected ip with 10^6 P388 lymphotic leukemia cells on day O and treated ip on days 1-5 in accordance with the protocols described by the National Cancer Institute: Geran, R. I.; Greenberg, R. H.; MacDonald, M. M.; Schumacher, A. M.; Abbot, B. J. Cancer Chemother, Re., Part 3, 1972,3,1. The mean survival time (MST) for each treatment group (eight mice) is calculated and the percent of T/C was determined by using the following formula: % T/C=(MST treated)/(MST control) 100.

Where [2] appears, read: L1210 cells, 48 h, 50% growth inhibition, read-out: in vitro IC50.
The mark [3] stands for this setting: L1210 cells, 48 h, 50% growth inhibition, read-out: in vitro IC50 (μg/ml).
Setting [4] is: P388 ip, treated ip days 1-5, at opt dose, first or only value.
[5] abbreviates: P388 ip, treated ip days 1-5, at opt dose, repeated independent multidose assay (footnote c).

Turning to `CCN(CC)CCNc1ccc2ncn3c4ccc(OC)cc4c(=O)c1c23.Cl.Cl` [Example 1, 5-[[2-(Diethylamino)ethyl]amino]-8-methoxyimidazo[4,5,1-de] acridin-6-one Dihydrochloride], the IC50 came to 1.8 µM in experiment [1] (setting [2]) and 0.78 µg/mL in experiment [1] (setting [3]). Moreover, the “% T/C (mean survival time treated/control)” value in the experiment on P388 lymphotic leukemia (setting [4]) is given as 183%. Further, the “% T/C (mean survival time treated/control), second value” in the experiment on P388 lymphotic leukemia (setting [5]) came out at 209%.

Regarding `COc1ccc2c(c1)c(=O)c1c(NCCN(C)C)ccc3ncn2c31` [Example 2], the IC50 was 1.6 µM in experiment [1] (L1210, 48 h, read-out: in vitro IC50 (μM)) and 0.65 µg/mL in experiment [1] (L1210, 48 h, read-out: in vitro IC50 (μg/ml)). For the same molecule, in the experiment on P388 lymphotic leukemia (setting [4]), the “% T/C (mean survival time treated/control)” value amounted to 177%. For the same molecule, in the experiment on P388 lymphotic leukemia (setting [5]), the “% T/C (mean survival time treated/control), second value” was found to be 136%.

As to `COc1ccc2c(c1)c(=O)c1c(NCCN(C)C)ccc3nc(C)n2c31` [Example 3], the IC50 was 0.77 µM in experiment [1] (setting [2]) and 0.34 µg/mL in experiment [1] (setting [3]). For the same molecule, the “% T/C (mean survival time treated/control)” value with P388 lymphotic leukemia (setting [4]) is given as 127%.

Consider `CCN(CC)CCNc1ccc2nc(C)n3c4ccc(OC)cc4c(=O)c1c23` [Example 4], for which the IC50 in experiment [1] (setting [2]) was 1.55 µM; in experiment [1] (setting [3]), 0.7 µg/mL. In addition, in the experiment on P388 lymphotic leukemia (setting [4]), the “% T/C (mean survival time treated/control)” value is 136%. In addition, in the experiment with P388 lymphotic leukemia (setting [5]), the “% T/C (mean survival time treated/control), second value” is reported as 120%.

As to `COc1ccc2c(c1)c(=O)c1c(NCCCN(C)C)ccc3ncn2c31` [Example 5], the results for the IC50 in experiment [1] (setting [2]) and in experiment [1] (setting [3]) were 8.25 µM and 3.5 µg/mL, respectively. The “% T/C (mean survival time treated/control)” value with P388 lymphotic leukemia (setting [4]) turned out to be 164%.

With `COc1ccc2c(c1)c(=O)c1c(NCCCN(C)C)ccc3nc(C)n2c31` [Example 6], the IC50 in experiment [1] (setting [2]) stood at 3.2 µM; in experiment [1] (setting [3]) it was 1.4 µg/mL. The “% T/C (mean survival time treated/control)” value with P388 lymphotic leukemia (setting [4]) is 136%.

As to `CCN(CC)CCCNc1ccc2ncn3c4ccc(OC)cc4c(=O)c1c23` [Example 7], the IC50 in experiment [1] (setting [2]) was determined as 2.5 µM; in experiment [1] (setting [3]) it was 1.1 µg/mL. Moreover, the “% T/C (mean survival time treated/control)” value in the experiment on P388 lymphotic leukemia (setting [4]) is on record as 142%.

`CCN(CC)CCCNc1ccc2nc(C)n3c4ccc(OC)cc4c(=O)c1c23` [Example 8]: the IC50 in experiment [1] (setting [2]) was 1.4 µM; in experiment [1] (setting [3]), 0.7 µg/mL. Also, the “% T/C (mean survival time treated/control)” value in the experiment on P388 lymphotic leukemia (setting [4]) is 108%.

Consider `CN(C)CCNc1ccc2ncn3c4ccc(O)cc4c(=O)c1c23` [Example 9], for which the IC50 in experiment [1] (setting [2]) amounted to 0.048 µM; in experiment [1] (setting [3]), 0.02 µg/mL. Besides, in the experiment on P388 lymphotic leukemia (setting [4]), the “% T/C (mean survival time treated/control)” value was 210%. Moreover, the “% T/C (mean survival time treated/control), second value” in the experiment on P388 lymphotic leukemia (setting [5]) is reported as 210%.

In the case of `Cc1nc2ccc(NCCN(C)C)c3c(=O)c4cc(O)ccc4n1c23` [Example 10], the results for the IC50 in experiment [1] (setting [2]) and in experiment [1] (setting [3]) were 0.135 µM and 0.06 µg/mL, respectively. Moreover, the “% T/C (mean survival time treated/control)” value in the experiment on P388 lymphotic leukemia (setting [4]) turned out to be 200%. The “% T/C (mean survival time treated/control), second value” in the experiment with P388 lymphotic leukemia (setting [5]) was determined as 250%.

For `CCN(CC)CCNc1ccc2ncn3c4ccc(O)cc4c(=O)c1c23` [Example 11], in experiment [1] (setting [2]), the IC50 is 0.031 µM. Besides, in experiment [1] (setting [3]), the IC50 turned out to be 0.013 µg/mL. Moreover, in the experiment with P388 lymphotic leukemia (ip), the “% T/C (mean survival time treated/control)” value came out at 211% and the “% T/C (mean survival time treated/control), second value” worked out at 175%.

As for `CCN(CC)CCNc1ccc2nc(C)n3c4ccc(O)cc4c(=O)c1c23` [Example 12], the IC50 in experiment [1] (setting [2]) amounted to 0.25 µM; in experiment [1] (setting [3]), 0.11 µg/mL. Moreover, in the experiment with P388 lymphotic leukemia (setting [4]), the “% T/C (mean survival time treated/control)” value was 280%. In the experiment with P388 lymphotic leukemia (setting [5]), the “% T/C (mean survival time treated/control), second value” is 290%.

Regarding `CN(C)CCCNc1ccc2ncn3c4ccc(O)cc4c(=O)c1c23` [Example 13], the IC50 in experiment [1] (setting [2]) was determined as 0.034 µM; in experiment [1] (setting [3]), 0.014 µg/mL. In addition, the “% T/C (mean survival time treated/control)” value in the experiment with P388 lymphotic leukemia (setting [4]) was determined as 183%.

For `Cc1nc2ccc(NCCCN(C)C)c3c(=O)c4cc(O)ccc4n1c23` [Example 14], the IC50 in experiment [1] (setting [2]) is 0.23 µM; in experiment [1] (setting [3]), 0.1 µg/mL. Further, the “% T/C (mean survival time treated/control)” value with P388 lymphotic leukemia (setting [4]) is 255%.

As to `CCN(CC)CCCNc1ccc2ncn3c4ccc(O)cc4c(=O)c1c23` [Example 15], the IC50 in experiment [1] (setting [2]) was found to be 0.18 µM; in experiment [1] (setting [3]), 0.08 µg/mL. Besides, in the experiment with P388 lymphotic leukemia (setting [4]), the “% T/C (mean survival time treated/control)” value worked out at 309%. Also, in the experiment with P388 lymphotic leukemia (setting [5]), the “% T/C (mean survival time treated/control), second value” came out at 230%.

As to `CCN(CC)CCCNc1ccc2nc(C)n3c4ccc(O)cc4c(=O)c1c23` [Example 16], the figures for the IC50 in experiment [1] (setting [2]) and in experiment [1] (setting [3]) were 0.89 µM and 0.4 µg/mL, respectively. Further, in the experiment with P388 lymphotic leukemia (setting [4]), the “% T/C (mean survival time treated/control)” value was determined as 150%. Also, in the experiment with P388 lymphotic leukemia (setting [5]), the “% T/C (mean survival time treated/control), second value” is 155%.

(Values after patent publication US5231100A, “Antineoplastic modified imidazoacridines” (British Technology Group Limited, priority 1991, dated 1993).)
